Laboratory results taken from patent publication US9193733B2, “Piperidinylcyclobutyl substituted pyrrolopyridine and pyrrolopyrimidine derivatives as JAK inhibitors” (Incyte Corporation, priority 2012, dated 2015).

Columns and labels:
Format in all cases: biochemical
[1] = target: T1, human JAK2 (a.a. 828-1132) catalytic domain (Homo sapiens, UniProt O60674); assay: In vitro JAK kinase assay (HTRF, phosphorylation of a biotinylated peptide), JAK2; conditions: 1 mM ATP
T1 construct: human JAK1 (a.a. 837-1142) and JAK2 (a.a. 828-1132); His tag (N); made in house; host or cells: insect cells (baculovirus)
Protocol: (§1) Compounds herein were tested for inhibitory activity of JAK targets according to the following in vitro assay described in Park et al., Analytical Biochemistry 1999, 269, 94-104. The catalytic domains of human JAK1 (a.a. 837-1142) and JAK2 (a.a. 828-1132) with an N-terminal His tag were expressed using baculovirus in insect cells and purified. The catalytic activity of JAK1 and JAK2 was assayed by measuring the phosphorylation of a biotinylated peptide. The phosphorylated peptide was detected by homogenous time resolved fluorescence (HTRF). IC50s of compounds were measured for each kinase in the 40 microL reactions that contain the enzyme, ATP and 500 nM peptide in 50 mM Tris (pH 7.8) buffer with 100 mM NaCl, 5 mM DTT, and 0.1 mg/mL (0.01%) BSA. For the 1 mM IC50 measurements, ATP concentration in the reactions was 1 mM. Reactions were carried out at room temperature for 1 hour and then stopped with 20 μL 45 mM EDTA, 300 nM SA-APC, 6 nM Eu-Py20 in assay buffer (Perkin Elmer, Boston, Mass.). Binding to the Europium labeled antibody took place for 40 minutes and HTRF signal was measured on a Fusion plate reader (Perkin Elmer, Boston, Mass.). See Table A for data related to compounds of the Examples (at 1 mM). Data is indicated as ranges: <20 nM (+), 20 to <150 nM (++), 150 to 500 nM (+++).

[2] = tested on: human JAK1 (a.a. 837-1142) catalytic domain; assay: In vitro JAK kinase assay (HTRF, phosphorylation of a biotinylated peptide), JAK1; conditions: ratio of JAK2 IC50 to JAK1 IC50, 1 mM ATP
Protocol: as §1

[3] = target: T2, human JAK1 (a.a. 837-1142) catalytic domain (Homo sapiens, UniProt P23458); assay: as above; conditions: 1 mM ATP
T2 construct: human JAK1 (a.a. 837-1142) and JAK2 (a.a. 828-1132); His tag (N); made in house; host or cells: insect cells (baculovirus)
Protocol: as §1

T1 sequence (O60674 828-1132): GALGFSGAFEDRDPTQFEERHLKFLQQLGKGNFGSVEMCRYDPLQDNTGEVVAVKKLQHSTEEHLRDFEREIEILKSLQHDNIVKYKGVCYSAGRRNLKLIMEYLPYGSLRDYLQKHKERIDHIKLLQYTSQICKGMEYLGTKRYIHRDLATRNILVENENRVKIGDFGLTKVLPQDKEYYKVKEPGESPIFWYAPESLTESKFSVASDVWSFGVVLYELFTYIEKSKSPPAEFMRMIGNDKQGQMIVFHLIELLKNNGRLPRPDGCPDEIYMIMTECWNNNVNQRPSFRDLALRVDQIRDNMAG
T2 sequence (P23458 849-1154): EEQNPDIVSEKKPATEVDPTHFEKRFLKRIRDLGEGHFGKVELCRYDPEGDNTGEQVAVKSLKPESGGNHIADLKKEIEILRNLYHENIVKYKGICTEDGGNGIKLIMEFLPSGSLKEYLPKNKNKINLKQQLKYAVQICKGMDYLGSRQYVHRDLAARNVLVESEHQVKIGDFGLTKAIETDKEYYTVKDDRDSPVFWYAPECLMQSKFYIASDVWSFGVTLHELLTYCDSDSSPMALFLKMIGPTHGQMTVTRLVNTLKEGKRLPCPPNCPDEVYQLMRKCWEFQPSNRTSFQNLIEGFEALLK

Structure (SMILES) | IC50 [1] | JAK2/JAK1 [2] | IC50 [3]
CC1(C)CN(Cc2cc(OC3CCN([C@H]4C[C@](CC#N)(n5cc(-c6ncnc7[nH]ccc67)cn5)C4)CC3)nc(C(F)(F)F)c2)C1 [Example 13, {trans-3-(4-{[4-[(3,3-dimethylazetidin-1-yl)methyl]-6-(trifluoromethyl)pyridin-2-yl]oxy}piperidin-1-yl)-1-[4-(7H-pyrrolo[2,3-d]pyrimidin-4-yl)-1H-pyrazol-1-yl]cyclobutyl}acetonitrile] | 20 to 150 nM | >10 | < 20 nM
CCNCc1cc(NC2CCN([C@H]3C[C@](CC#N)(n4cc(-c5ncnc6[nH]ccc56)cn4)C3)CC2)nc(C(F)(F)F)n1 [Example 28, {trans-3-(4-{[6-[(ethylamino)methyl]-2-(trifluoromethyl)pyrimidin-4-yl]amino}piperidin-1-yl)-1-[4-(7H-pyrrolo[2,3-d]pyrimidin-4-yl)-1H-pyrazol-1-yl]cyclobutyl}acetonitrile] | 20 to 150 nM | >10 | < 20 nM
N#CC[C@]1(n2cc(-c3ncnc4[nH]ccc34)cn2)C[C@H](N2CCC(Oc3cc(Cn4cccn4)cc(C(F)(F)F)n3)CC2)C1 [Example 25, {trans-3-(4-{[4-(1H-pyrazol-1-ylmethyl)-6-(trifluoromethyl)pyridin-2-yl]oxy}piperidin-1-yl)-1-[4-(7H-pyrrolo[2,3-d]pyrimidin-4-yl)-1H-pyrazol-1-yl]cyclobutyl}acetonitrile] | 150 to 500 nM | >10 | < 20 nM
N#CC[C@]1(n2cc(-c3ncnc4[nH]ccc34)cn2)C[C@H](N2CCC(Nc3cc(CNCCO)cc(C(F)(F)F)n3)CC2)C1 [Example 33, {trans-3-(4-{[4-{[(2-hydroxyethyl)amino]methyl}-6-(trifluoromethyl)pyridin-2-yl]amino}piperidin-1-yl)-1-[4-(7H-pyrrolo[2,3-d]pyrimidin-4-yl)-1H-pyrazol-1-yl]cyclobutyl}acetonitrile] | 20 to 150 nM | >10 | < 20 nM
N#CC[C@]1(n2cc(-c3ncnc4[nH]ccc34)cn2)C[C@H](N2CCC(Oc3cc(Cn4cnnc4)cc(C(F)(F)F)n3)CC2)C1 [Example 24, [trans-1-[4-(7H-pyrrolo[2,3-d]pyrimidin-4-yl)-1H-pyrazol-1-yl]-3-(4-{[4-(4H-1,2,4-triazol-4-ylmethyl)-6-(trifluoromethyl)pyridin-2-yl]oxy}piperidin-1-yl)cyclobutyl]acetonitrile] | 20 to 150 nM | >10 | < 20 nM
N#CC[C@]1(n2cc(-c3ncnc4[nH]ccc34)cn2)C[C@H](N2CCC(Oc3cc(CN[C@H]4CCOC4)cc(C(F)(F)F)n3)CC2)C1 [Example 7, [trans-1-[4-(7H-pyrrolo[2,3-d]pyrimidin-4-yl)-1H-pyrazol-1-yl]-3-(4-{[4-{[(3S)-tetrahydrofuran-3-ylamino]methyl}-6-(trifluoromethyl)pyridin-2-yl]oxy}piperidin-1-yl)cyclobutyl]acetonitrile] | 20 to 150 nM | >10 | < 20 nM
N#CC[C@]1(n2cc(-c3ncnc4[nH]ccc34)cn2)C[C@H](N2CCC(Nc3cc(CN4CC[C@@H](O)C4)cc(C(F)(F)F)n3)CC2)C1 [Example 44, {trans-3-(4-{[4-{[(3R)-3-hydroxypyrrolidin-1-yl]methyl}-6-(trifluoromethyl)pyridin-2-yl]amino}piperidin-1-yl)-1-[4-(7H-pyrrolo[2,3-d]pyrimidin-4-yl)-1H-pyrazol-1-yl]cyclobutyl}acetonitrile] | 20 to 150 nM | >10 | < 20 nM
C[C@H](CO)NCc1cc(OC2CCN([C@H]3C[C@](CC#N)(n4cc(-c5ncnc6[nH]ccc56)cn4)C3)CC2)nc(C(F)(F)F)c1 [Example 2, {trans-3-(4-{[4-({[(1R)-2-hydroxy-1-methylethyl]amino}methyl)-6-(trifluoromethyl)pyridin-2-yl]oxy}piperidin-1-yl)-1-[4-(7H-pyrrolo[2,3-d]pyrimidin-4-yl)-1H-pyrazol-1-yl]cyclobutyl}acetonitrile] | 20 to 150 nM | >10 | < 20 nM
